Measurements reported in ChEMBL document CHEMBL1158786, “Triterpenoid saponin anthranilates from Albizia grandibracteata leaves ingested by primates in Uganda” (J Nat Prod, 2005).

Key:
[1] = test system: MCF7; assay: Cytotoxicity against human MCF7 cells; assay type: functional, cell-based
[2] = test system: KB; assay: Cytotoxicity against human KB cells; assay type: functional, cell-based

## CC(=O)N[C@H]1[C@H](O[C@H]2CC[C@]3(C)[C@H]4CC=C5[C@@H]6CC(C)(C)[C@@H](OC(=O)c7ccccc7N)C[C@]6(C(=O)O[C@@H]6O[C@H](CO)[C@@H](O)[C@H](O)[C@H]6O[C@@H]6O[C@@H](C)[C@H](O[C@@H]7O[C@@H](CO)[C@H](O)[C@H]7O)[C@@H](O[C@@H]7O[C@H](CO)[C@@H](O)[C@H](O)[C@H]7O)[C@H]6O)[C@H](O)C[C@@]5(C)[C@]4(C)CC[C@H]3C2(C)C)O[C@H](CO[C@@H]2O[C@H](C)[C@H](O)[C@H](O)[C@H]2O[C@@H]2OC[C@@H](O)[C@H](O)[C@H]2O)[C@@H](O)[C@@H]1O [GRANDIBRACTEOSIDE C]
[1]
  IC50: 1700 nM
[2]
  IC50: 2300 nM

## CC(=O)N[C@H]1[C@H](O[C@H]2CC[C@]3(C)[C@H]4CC=C5[C@@H]6CC(C)(C)[C@@H](OC(=O)c7ccccc7N)C[C@]6(C(=O)O[C@@H]6O[C@H](CO[C@@H]7O[C@H](CO)[C@@H](O)[C@H](O)[C@H]7O)[C@@H](O)[C@H](O)[C@H]6O[C@@H]6O[C@@H](C)[C@H](O[C@@H]7OC[C@@H](O)[C@H](O)[C@H]7O)[C@@H](O)[C@H]6O)[C@H](O)C[C@@]5(C)[C@]4(C)CC[C@H]3C2(C)C)O[C@H](CO[C@@H]2O[C@H](C)[C@H](O)[C@H](O)[C@H]2O[C@@H]2OC[C@@H](O)[C@H](O)[C@H]2O)[C@@H](O)[C@@H]1O [GRANDIBRACTEOSIDE B]
[1]
  IC50: 1700 nM
[2]
  IC50: 2300 nM

## COc1cccc2c1C(=O)c1c(O)c3c(c(O)c1C2=O)C[C@@](O)(C(=O)CO)C[C@@H]3O[C@H]1C[C@H](N)[C@H](O)[C@H](C)O1 [DOXORUBICIN]
[1]
  IC50: 100 nM
[2]
  IC50: 100 nM

## CC(=O)N[C@H]1[C@H](O[C@H]2CC[C@]3(C)[C@H]4CC=C5[C@@H]6CC(C)(C)[C@@H](OC(=O)c7ccccc7N)C[C@]6(C(=O)O[C@@H]6O[C@H](CO)[C@@H](O)[C@H](O)[C@H]6O[C@@H]6O[C@@H](C)[C@H](O[C@@H]7OC[C@@H](O)[C@H](O)[C@H]7O)[C@@H](O)[C@H]6O)[C@H](O)C[C@@]5(C)[C@]4(C)CC[C@H]3C2(C)C)O[C@H](CO[C@@H]2O[C@H](C)[C@H](O)[C@H](O)[C@H]2O[C@@H]2OC[C@@H](O)[C@H](O)[C@H]2O)[C@@H](O)[C@@H]1O [GRANDIBRACTEOSIDE A]
[1]
  IC50: 400 nM
[2]
  IC50: 1300 nM
